Laboratory results reported in PubChem BioAssay AID270 (DTP/NCI, 2004).
Several values for one entry are separate records, joined by “and”; a condition that tells them apart may be missing. Equal entries are not always repeated. Records with an inconclusive call do not appear.

System: BDF1 mice, s.c. Lewis lung carcinoma, T/C %
Experiment: NCI In Vivo Anticancer Drug Screen. Data for tumor model Lewis Lung Carcinoma (subcutaneous) in B6D2F1 (BDF1) mice
Summary of the method: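 Readout: survival or tumor size, expressed as treated (T) over vehicle control (C). Transplantable tumor implanted in mice; compound given to the treated group.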

[1] = endpoint: median survival time, dose: 12.5 mg/kg/injection, schedule: Q01DX009 (ip), vehicle: saline, higher = longer survival
[2] = endpoint: mean tumor weight, dose: 100.0 mg/kg/injection, schedule: Q01DX011 (ip), vehicle: carboxymethylcellulose (CMC), higher = larger tumour
[3] = endpoint: mean tumor weight, dose: 200.0 mg/kg/injection, schedule: Q01DX011 (ip), vehicle: carboxymethylcellulose (CMC), higher = larger tumour

O=C(O)CC(NC(=O)CP(=O)(O)O)C(=O)O (centres undefined)
T/C [1]: 120 % of control and 121 % of control | T/C (endpoint: median survival time, dose: 17.1 mg/kg/injection, schedule: Q01DX004 (ip), vehicle: saline, higher = longer survival): 120 % of control | T/C (endpoint: median survival time, dose: 18.8 mg/kg/injection, schedule: Q01DX004 (ip), vehicle: saline, higher = longer survival): 124 % of control | T/C (endpoint: median survival time, dose: 23.3 mg/kg/injection, schedule: Q01DX009 (ip), vehicle: saline, higher = longer survival): 121 % of control | T/C (endpoint: median survival time, dose: 25.0 mg/kg/injection, schedule: Q01DX004 (ip), vehicle: saline, higher = longer survival): 226 % of control | T/C (endpoint: median survival time, dose: 34.1 mg/kg/injection, schedule: Q01DX004 (ip), vehicle: saline, higher = longer survival): 178 % of control | T/C (endpoint: median survival time, dose: 37.5 mg/kg/injection, schedule: Q01DX004 (ip), vehicle: saline, higher = longer survival): 120 % of control | T/C (endpoint: median survival time, dose: 38.9 mg/kg/injection, schedule: Q01DX004 (ip), vehicle: saline, higher = longer survival): 123 % of control | T/C (endpoint: median survival time, dose: 38.9 mg/kg/injection, schedule: Q01DX009 (oral), vehicle: saline, higher = longer survival): 100 % of control | T/C (endpoint: median survival time, dose: 50.0 mg/kg/injection, schedule: Q01DX004 (ip), vehicle: saline, higher = longer survival): 225 % of control | T/C (endpoint: median survival time, dose: 50.0 mg/kg/injection, schedule: Q01DX005 (ip), vehicle: saline, higher = longer survival): 95 % of control | T/C (endpoint: median survival time, dose: 64.0 mg/kg/injection, schedule: Q01DX004 (ip), vehicle: saline, higher = longer survival): 108 % of control | T/C (endpoint: median survival time, dose: 64.8 mg/kg/injection, schedule: Q01DX004 (ip), vehicle: saline, higher = longer survival): 175 % of control and 197 % of control | T/C (endpoint: median survival time, dose: 64.8 mg/kg/injection, schedule: Q01DX009 (ip), vehicle: saline, higher = longer survival): 167 % of control | T/C (endpoint: median survival time, dose: 64.8 mg/kg/injection, schedule: Q01DX009 (oral), vehicle: saline, higher = longer survival): 103 % of control | T/C (endpoint: median survival time, dose: 68.3 mg/kg/injection, schedule: Q01DX004 (ip), vehicle: saline, higher = longer survival): 247 % of control | T/C (endpoint: median survival time, dose: 68.3 mg/kg/injection, schedule: Q01DX004 (ip), vehicle: suspension in saline, higher = longer survival): 112 % of control | T/C (endpoint: median survival time, dose: 70.0 mg/kg/injection, schedule: Q01DX009 (oral), vehicle: saline, higher = longer survival): 122 % of control | T/C (endpoint: median survival time, dose: 75.0 mg/kg/injection, schedule: Q01DX004 (ip), vehicle: saline, higher = longer survival): 247 % of control | T/C (endpoint: median survival time, dose: 100.0 mg/kg/injection, schedule: Q01DX004 (ip), vehicle: saline, higher = longer survival): 226 % of control | T/C (endpoint: median survival time, dose: 108.0 mg/kg/injection, schedule: Q01DX004 (ip), vehicle: saline, higher = longer survival): 197 % of control and 299 % of control | T/C (endpoint: median survival time, dose: 108.0 mg/kg/injection, schedule: Q01DX009 (ip), vehicle: saline, higher = longer survival): 222 % of control | T/C (endpoint: median survival time, dose: 108.0 mg/kg/injection, schedule: Q01DX009 (oral), vehicle: saline, higher = longer survival): 107 % of control | T/C (endpoint: median survival time, dose: 108.0 mg/kg/injection, schedule: Q04DX004 (ip), vehicle: saline, higher = longer survival): 118 % of control | T/C (endpoint: median survival time, dose: 110.0 mg/kg/injection, schedule: Q01DX009 (oral), vehicle: saline, higher = longer survival): 122 % of control | T/C (endpoint: median survival time, dose: 116.0 mg/kg/injection, schedule: Q01DX009 (ip), vehicle: saline, higher = longer survival): 181 % of control | T/C (endpoint: median survival time, dose: 125.0 mg/kg/injection, schedule: Q01DX009 (ip), vehicle: saline, higher = longer survival): 176 % of control and 194 % of control | T/C (endpoint: median survival time, dose: 133.0 mg/kg/injection, schedule: Q01DX007 (other), vehicle: saline, higher = longer survival): 206 % of control | T/C (endpoint: median survival time, dose: 133.0 mg/kg/injection, schedule: Q01DX007 (sc), vehicle: saline, higher = longer survival): 206 % of control | T/C (endpoint: median survival time, dose: 136.0 mg/kg/injection, schedule: Q01DX004 (ip), vehicle: suspension in saline, higher = longer survival): 204 % of control | T/C (endpoint: median survival time, dose: 136.5 mg/kg/injection, schedule: Q01DX004 (ip), vehicle: saline, higher = longer survival): 248 % of control | T/C (endpoint: median survival time, dose: 140.0 mg/kg/injection, schedule: Q01DX009 (ip), vehicle: saline, higher = longer survival): 166 % of control | T/C (endpoint: median survival time, dose: 150.0 mg/kg/injection, schedule: Q01DX004 (ip), vehicle: saline, higher = longer survival): 248 % of control | T/C (endpoint: median survival time, dose: 150.0 mg/kg/injection, schedule: Q01DX009 (ip), vehicle: saline, higher = longer survival): 186 % of control | T/C (endpoint: median survival time, dose: 160.0 mg/kg/injection, schedule: Q01DX009 (oral), vehicle: saline, higher = longer survival): 119 % of control | T/C (endpoint: median survival time, dose: 167.0 mg/kg/injection, schedule: Q01DX010 (ip), vehicle: saline, higher = longer survival): 152 % of control | T/C (endpoint: median survival time, dose: 175.0 mg/kg/injection, schedule: Q01DX009 (ip), vehicle: saline, higher = longer survival): 163 % of control | T/C (endpoint: median survival time, dose: 178.0 mg/kg/injection, schedule: Q01DX009 (ip), vehicle: saline, higher = longer survival): 178 % of control and 237 % of control | T/C (endpoint: median survival time, dose: 180.0 mg/kg/injection, schedule: Q01DX009 (ip), vehicle: saline, higher = longer survival): 159 % of control and 222 % of control | T/C (endpoint: median survival time, dose: 180.0 mg/kg/injection, schedule: Q01DX009 (oral), vehicle: saline, higher = longer survival): 102 % of control | T/C (endpoint: median survival time, dose: 180.0 mg/kg/injection, schedule: Q04DX004 (ip), vehicle: saline, higher = longer survival): 178 % of control | T/C (endpoint: median survival time, dose: 200.0 mg/kg/injection, schedule: Q01DX004 (ip), vehicle: saline, higher = longer survival): 226 % of control | T/C (endpoint: median survival time, dose: 200.0 mg/kg/injection, schedule: Q01DX005 (ip), vehicle: saline, higher = longer survival): 115 % of control | T/C (endpoint: median survival time, dose: 200.0 mg/kg/injection, schedule: Q01DX007 (other), vehicle: saline, higher = longer survival): 206 % of control | T/C (endpoint: median survival time, dose: 200.0 mg/kg/injection, schedule: Q01DX007 (sc), vehicle: saline, higher = longer survival): 206 % of control | T/C (endpoint: median survival time, dose: 200.0 mg/kg/injection, schedule: Q01DX009 (ip), vehicle: saline, higher = longer survival): 225 % of control | T/C (endpoint: median survival time, dose: 240.0 mg/kg/injection, schedule: Q04DX003 (ip), vehicle: saline, higher = longer survival): 150 % of control | T/C (endpoint: median survival time, dose: 250.0 mg/kg/injection, schedule: Q01DX010 (ip), vehicle: saline, higher = longer survival): 158 % of control | T/C (endpoint: median survival time, dose: 265.0 mg/kg/injection, schedule: Q01DX009 (ip), vehicle: saline, higher = longer survival): 195 % of control | T/C (endpoint: median survival time, dose: 273.0 mg/kg/injection, schedule: Q01DX004 (ip), vehicle: saline, higher = longer survival): 195 % of control | T/C (endpoint: median survival time, dose: 273.0 mg/kg/injection, schedule: Q01DX004 (ip), vehicle: suspension in saline, higher = longer survival): 177 % of control | T/C (endpoint: median survival time, dose: 300.0 mg/kg/injection, schedule: Q01DX007 (sc), vehicle: saline, higher = longer survival): 198 % of control | T/C (endpoint: median survival time, dose: 300.0 mg/kg/injection, schedule: Q04DX004 (ip), vehicle: saline, higher = longer survival): 169 % of control | T/C (endpoint: median survival time, dose: 343.0 mg/kg/injection, schedule: Q04DX003 (ip), vehicle: saline, higher = longer survival): 153 % of control and 186 % of control (2×) | T/C (endpoint: median survival time, dose: 375.0 mg/kg/injection, schedule: Q01DX010 (ip), vehicle: saline, higher = longer survival): 95 % of control | T/C (endpoint: median survival time, dose: 400.0 mg/kg/injection, schedule: Q01DX004 (ip), vehicle: saline, higher = longer survival): 224 % of control | T/C (endpoint: median survival time, dose: 490.0 mg/kg/injection, schedule: Q04DX003 (ip), vehicle: saline, higher = longer survival): 150 % of control and 186 % of control and 193 % of control | T/C (endpoint: median survival time, dose: 500.0 mg/kg/injection, schedule: Q04DX004 (ip), vehicle: saline, higher = longer survival): 176 % of control | T/C (endpoint: median survival time, dose: 833.0 mg/kg/injection, schedule: Q04DX004 (ip), vehicle: saline, higher = longer survival): 64 % of control | T/C (endpoint: median survival time, dose: 50.0 ml/mouse/injection, schedule: Q01DX005 (ip), vehicle: saline, higher = longer survival): 94 % of control | T/C (endpoint: median survival time, dose: 200.0 ml/mouse/injection, schedule: Q01DX005 (ip), vehicle: saline, higher = longer survival): 117 % of control

C=C(C)C1CC=C(C)CC1 (centres undefined)
T/C [2]: 65 % of control | T/C [3]: 43 % of control

CC[C@H]1CN2CCc3cc(OC)c(OC)cc3[C@@H]2C[C@@H]1C[C@H]1NCCc2cc(O)c(OC)cc21
T/C (endpoint: mean tumor weight, dose: 1.25 mg/kg/injection, schedule: Q01DX011 (ip), vehicle: saline, higher = larger tumour): 94 % of control | T/C (endpoint: mean tumor weight, dose: 2.5 mg/kg/injection, schedule: Q01DX011 (ip), vehicle: saline, higher = larger tumour): 55 % of control | T/C (endpoint: mean tumor weight, dose: 5.0 mg/kg/injection, schedule: Q01DX011 (ip), vehicle: saline, higher = larger tumour): 37 % of control

COc1cc(N(CCCl)CCCl)ccc1NC(=O)c1ccccc1
T/C (endpoint: mean tumor weight, dose: 12.5 mg/kg/injection, schedule: Q01DX011 (ip), vehicle: Klucel (hydroxypropylcellulose) (HPC), higher = larger tumour): 68 % of control | T/C (endpoint: mean tumor weight, dose: 25.0 mg/kg/injection, schedule: Q01DX011 (ip), vehicle: Klucel (hydroxypropylcellulose) (HPC), higher = larger tumour): 48 % of control

COc1cc(NS(C)(=O)=O)ccc1Nc1c2ccccc2nc2c(C)cccc12
T/C (endpoint: median survival time, dose: 1.25 mg/kg/injection, schedule: Q01DX009 (ip), vehicle: Klucel (hydroxypropylcellulose) (HPC), higher = longer survival): 103 % of control | T/C (endpoint: median survival time, dose: 5.0 mg/kg/injection, schedule: Q01DX009 (ip), vehicle: Klucel (hydroxypropylcellulose) (HPC), higher = longer survival): 121 % of control

CC1CN1P(=O)(N1CC1C)N1CC1C (centres undefined)
T/C (endpoint: median survival time, dose: 6.25 mg/kg/injection, schedule: Q01DX009 (ip), vehicle: saline, higher = longer survival): 98 % of control | T/C [1]: 90 % of control | T/C (endpoint: median survival time, dose: 25.0 mg/kg/injection, schedule: Q01DX009 (ip), vehicle: saline, higher = longer survival): 89 % of control

OCc1ccccc1OC1OC(CO)C(O)C(O)C1O (centres undefined)
T/C [2]: 106 % of control | T/C [3]: 86 % of control | T/C (endpoint: mean tumor weight, dose: 400.0 mg/kg/injection, schedule: Q01DX011 (ip), vehicle: carboxymethylcellulose (CMC), higher = larger tumour): 100 % of control

CO/[N+]([O-])=C\C(=O)N/C=C/C(=O)O
T/C (endpoint: mean tumor weight, dose: 22.0 mg/kg/injection, schedule: Q01DX011 (ip), vehicle: carboxymethylcellulose (CMC), higher = larger tumour): 80 % of control | T/C (endpoint: mean tumor weight, dose: 33.0 mg/kg/injection, schedule: Q01DX011 (ip), vehicle: carboxymethylcellulose (CMC), higher = larger tumour): 57 % of control

O=C(O)O.[Cd]
T/C (endpoint: mean tumor weight, dose: 0.5 mg/kg/injection, schedule: Q01DX011 (ip), vehicle: carboxymethylcellulose (CMC), higher = larger tumour): 72 % of control
